Tests used:
[1] = Solid-state stability / dehydration of hydrate crystal forms; type: physicochemical; settings: for Dehydration temperature range: solid crystal form
Method: Differential Scanning Calorimetry (DSC) analysis was carried out on either TA Instruments DSC2920 or TA instrument Q1000 or a Mettler DSC 821, calibrated with indium. DSC sample was prepared by weighing 2-4 mg of material in an aluminum pan with a pinhole. The sample was heated under nitrogen, at a rate of 5° C. or 10° C. per minute from 3 to 300 C.

MAPKAP kinase-2 = assay: MAPKAP Kinase-2 assay (LPS-stimulated monocytes, immunoprecipitation, kinase activity); type: cell-based; settings: human monocytes, LPS 30 minutes, MAPKAP kinase-2 immunoprecipitate; read-out: IC50 in the MAPKAP in vitro assay
Method: Mononuclear cells are collected from heparinized human blood as detailed above. The washed cells are seeded into 6-well cluster plates at a density of 1×10^7 cells/well (in 2 ml of Medium). The plates are incubated at 37° C. in a 5% CO2 environment for 2 hours to allow adherence of the monocytes, after which time media supernatants containing non-adherent cells are removed by aspiration and 2 ml of fresh medium are added to each well. Plates are incubated overnight at 37° C. in a 5% CO2 environment.
Media are removed by aspiration. The attached cells are rinsed twice with fresh Medium, then 2 ml of D-MEM medium containing 10% heat inactivated FBS are added to each well. 3-isopropyl-6-[4-(2,5-difluoro-phenyl)-oxazol-5-yl]-[1,2,4]triazolo-[4,3-a]pyridine is prepared as a 30 mM stock solution in DMSO and diluted to 1250, 250, 50, 10, 2, and 0.4 μM in D-MEM containing 1% DMSO and 10% FBS. To individual wells of the monocyte cultures, 20 μl of these 3-isopropyl-6-[4-(2,5-difluoro-phenyl)-oxazol-5-yl]-[1,2,4]triazolo-[4,3-a]pyridine dilutions are added resulting in final 3-isopropyl-6-[4-(2,5-difluoro-phenyl)-oxazol-5-yl]-[1,2,4]triazolo-[4,3-a]pyridine concentrations of 12.5, 2.5, 0.5, 0.1, 0.02 and 0.004 μM. After a 10 minute preincubation period, 20 μl of a 10 μg/ml LPS solution are added to each well and the plates are incubated at 37° C. for 30 minutes. […]

[2] = tested on: TNF-alpha production by human LPS-treated monocytes; assay: Inhibition of TNF-alpha production by human LPS-treated monocytes; type: cell-based; settings: Monocyte, human mononuclear cells, 4 hours, TNF-α ELISA, read-out: IC50 in the TNFα in vitro assay
Method: Inhibition of TNF-alpha Production by Human LPS-treated Monocytes
Mononuclear cells are isolated from heparinized blood (1.5 ml of 1000 units/ml heparin for injection, Elkins-Sinn, Inc. added to each 50 ml sample) using Accuspin System-Histopaque-1077 tubes (Sigma A-7054). Thirty-five milliliters of whole blood are added to each tube and the tubes are centrifuged at 2100 rpm for 20 minutes in a Beckman GS-6KR centrifuge with the brake off at room temperature. The mononuclear cells which collect at the interface are removed, diluted with Macrophage serum free medium (Gibco-BRL) (Medium) to achieve a final volume of 50 ml, and collected by centrifugation for 10 minutes. The supernatant is discarded and the cell pellet is washed 2 times with 50 ml of Medium. A sample of the suspended cells is taken before the second wash for counting. Based on this count, the washed cells are diluted with Medium containing 1% FBS to a final concentration of 2.7×10^6 cells/ml and 75 μl of the cell suspension is added to each well of a 96 well plate.
3-isopropyl-6-[4-(2,5-difluoro-phenyl)-oxazol-5-yl]-[1,2,4]triazolo-[4,3-a]pyridine may be tested at final concentrations from 2 μM to 0.016 μM, but may be tested at other concentrations, depending on desire. […]
Supernatants are analyzed for TNF-α content using R&D ELISA. […]
The amount of TNF-α immunoreactivity in the samples is calculated as follows: […]

TNFα = assay: In vivo inhibition of TNFα (LPS-injected rats, serum TNFα ELISA); settings: Rattus norvegicus, ip, drug 1 hour before LPS i.p., serum TNFα 90 minutes later
Method: In Vivo Inhibition of TNFα Rats were weighed and dosed with vehicle (0.5% methyl cellulose, Sigma) or drug. One hour later, animals were injected i.p. with LPS (50 ug/rat, Sigma L-4130). Ninety minutes later, animals were sacrificed by asphyxiation with CO2 and bled by cardiac puncture. Blood was collected in Vaccutainer tubes and spun for 20 minutes at 3000 rpm. Serum was assayed for TNFα levels using an ELISA (R&D Systems).

Row | Compound | Dehydration temperature range [1] | IC50 (MAPKAP kinase-2) | IC50 [2] | ED50 (TNFα) | Form conversion upon dehydration [1]
1 | CC(C)c1nnc2ccc(-c3ocnc3-c3cc(F)ccc3F)cn12 [Form D, 3-Isopropyl-6-[4-(2,5-difluoro-phenyl)-oxazol-5-yl]-[1,2,4]triazolo-[4,3-a]pyridine form D] | 30 to 70 °C |  |  |  | 
2 | CC(C)c1nnc2ccc(-c3ocnc3-c3cc(F)ccc3F)cn12 [6-[4-(2,5-Difluoro-phenyl)-oxazol-5-yl]-3-isopropyl-[1,2,4]triazolo-[4,3-a]pyridine] |  | < 10 µM | < 10 µM | < 50 mg/kg | 
3 | CC(C)c1nnc2ccc(-c3ocnc3-c3cc(F)ccc3F)cn12 [Form E, 3-Isopropyl-6-[4-(2,5-difluoro-phenyl)-oxazol-5-yl]-[1,2,4]triazolo-[4,3-a]pyridine form E] | 75 to 100 °C |  |  |  | converts to Form B upon dehydration
